{
  "source": "paper PMC8068801",
  "about": "“Novel Benzenesulfonate Scaffolds with a High Anticancer Activity and G2/M Cell Cycle Arrest” (Cancers, 2021)",
  "test_system": "purified bovine tubulin",
  "test": "In vitro tubulin polymerization assay",
  "type": "biochemical",
  "details": "10 µM; turbidity at 350 nm, maximum absorbance",
  "protocol": "The effect of small-molecule compounds on tubulin polymerization was monitored using an In Vitro Tubulin Polymerization Kit (≥99% Pure Bovine Tubulin) (Millipore) following the manufacturer’s protocol. Briefly, the tested compounds, BS1 and BS4, as well as reference drugs, paclitaxel (enhancer of polymerization) and nocodazole (inhibitor of polymerization) at a concentration of 10 µM were mixed with purified bovine tubulin (60 μM) and polymerization buffer with GTP (1 mM) on 96-well plate on ice. Then, the plate was transferred into the multi-plate reader (Synergy 4) chamber (heated to 37 °C) and measured the turbidity variation every 30 s at 350 nm during 90 min. The experiments were performed three times.",
  "data": [
    {"smiles": "COc1ccccc1/C=C/c1nc(OS(=O)(=O)c2ccc3c(c2)OCO3)c2ccccc2n1", "note": "[BS1, 2-((E)-2-(2-methoxyphenyl)ethenyl)quinazolin-4-yl 1,3-benzodioxole-5-sulfonate]", "values": [
      {"measurement": "Enhancement of tubulin polymerization, increase compared to control", "value": "about 47%"}
    ]}
  ]
}
